Tested on: POSTN mRNA
Experiment: POSTN mRNA by RT-qPCR in rabbit nasal mucosa
Assay type: in vivo
Conditions: rostral and caudal regions; rabbits, compound 5 10 mM intranasal
Method: Six (6) female NZW rabbits were employed in this study. Rabbits were obtained from Covance (Denver Pa.). Rabbits were between approximately 10 and 12 months of age at the time of study start. At time point 0, all animals received 50 μL of solution containing rabbit IL4 (RND Systems/Biotechne) and human IL13 (PreproTech) at a concentration of 0.25 mg/mL each in 0.5×PBS containing 12.5 mg/mL BSA per nostril. This was administered intranasally via a venous catheter attached to a micropipette. The animal was positioned in a supine manner and the venous catheter inserted into the nostril. The volume was introduced into the nasal cavity and the same procedure was repeated with the other nostril. […]
Relative ALOX15 and POSTN mRNA levels in nasal mucosa were measured by RT-qPCR. […] The level of ALOX15 or POSTN mRNA from each sample was measured in triplicate by real-time qPCR on an Applied Biosystems 7500 Fast Real-Time PCR machine using the TaqMan Gene Expression Assay for rabbit ALOX15 (ThermoFisher, assay #Oc03823548_s1). The level of GAPDH mRNA was measured in biplex reactions using TaqMan Gene Expression Assay (ThermoFisher, assay #Oc03823402_g1) and used to determine relative ALOX15 mRNA levels in each well using the delta-delta Ct method. […] Relative POSTN mRNA levels were measured as above using TaqMan Gene Expression Assay specific for rabbit POSTN mRNA (ThermoFisher, assay #Oc06804808_s1). […]

O=C(Nc1ccc(F)cc1Cl)c1nn(COP(=O)(O)O)c(Cl)c1Cl [compound 5, (4,5-dichloro-3-((2-chloro-4-fluorophenyl)carbamoyl)-1H-pyrazol-1-yl)methyl dihydrogen phosphate]
relative level of POSTN mRNA in nasal mucosa versus vehicle (FIG. 11): lower

— US11116778B2, “Prodrugs of ALOX-15 inhibitors and methods of using the same” (EMPIRICO INC., priority 2019, dated 2021)
